Experimental data published in ChEMBL document CHEMBL3046894, “Synthesis and Herbicidal Activity of Pyrimidinyl Salicylic and Thiosalicylic Acids” (J Pestic Sci, 1996).
The source made the active and inactive calls. The rule behind the calls is not given here.

What was measured:
Echinochloa crus-galli [1] = experiment: Pre-emergence herbicidal activity against Echinochloa crus-galli (barnyard grass) assessed as mortality at 6.3 g a.i/10 a; assay type: functional
Ipomoea lacunosa [2] = experiment: Post-emergence herbicidal activity against Ipomoea lacunosa assessed as mortality at 1.6 g a.i/10 a applied 11 days after germination as foliar spray; assay type: functional; details: 264 h
Ipomoea lacunosa [3] = experiment: Post-emergence herbicidal activity against Ipomoea lacunosa assessed as mortality at 6.3 g a.i/10 a applied 11 days after germination as foliar spray; assay type: functional; details: 264 h
Gossypium hirsutum [4] = experiment: Pre-emergence phytotoxicity against Gossypium hirsutum (cotton) assessed as mortality at 6.3 g a.i/10 a; assay type: organism-based; details: in vivo, other
Gossypium hirsutum [5] = experiment: Pre-emergence phytotoxicity against Gossypium hirsutum (cotton) assessed as mortality at 1.6 g a.i/10 a; assay type: organism-based; details: in vivo, other
[6] = (§1) Pre-emergence phytotoxicity against Glycine max (soybean) assessed as mortality at 1.6 g a.i/10 a; assay type: organism-based; details: in vivo, 1.6 g a.i/10 a, read-out: Activity
[7] = (§2) Pre-emergence phytotoxicity against Glycine max (soybean) assessed as mortality at 6.3 g a.i/10 a; assay type: organism-based; details: in vivo, 6.3 g a.i/10 a
[8] = Pre-emergence phytotoxicity against Zea mays (maize) assessed as mortality at 1.6 g a.i/10 a; assay type: organism-based; details: in vivo, 1.6 g a.i/10 a
Zea mays [9] = experiment: Pre-emergence phytotoxicity against Zea mays (maize) assessed as mortality at 6.3 g a.i/10 a; assay type: organism-based; details: in vivo, other
Gossypium hirsutum [10] = experiment: (§3) Post-emergence phytotoxicity against Gossypium hirsutum (cotton) assessed as mortality at 1.6 g a.i/10 a applied 11 days after germination as foliar spray; assay type: organism-based; details: in vivo, other, 264 h
Gossypium hirsutum [11] = experiment: Post-emergence phytotoxicity against Gossypium hirsutum (cotton) assessed as mortality at 6.3 g a.i/10 a applied 11 days after germination as foliar spray; assay type: organism-based; details: in vivo, other, 264 h
Glycine max [12] = experiment: Post-emergence phytotoxicity against Glycine max (soybean) assessed as mortality at 6.3 g a.i/10 a applied 11 days after germination as foliar spray; assay type: organism-based; details: in vivo, other, 264 h
Glycine max [13] = experiment: (§4) Post-emergence phytotoxicity against Glycine max (soybean) assessed as mortality at 1.6 g a.i/10 a applied 11 days after germination as foliar spray; assay type: organism-based; details: in vivo, other, 264 h
Zea mays [14] = experiment: (§5) Post-emergence phytotoxicity against Zea mays (maize) assessed as mortality at 1.6 g a.i/10 a applied 11 days after germination as foliar spray; assay type: organism-based; details: in vivo, other, 264 h
Zea mays [15] = experiment: Post-emergence phytotoxicity against Zea mays (maize) assessed as mortality at 6.3 g a.i/10 a applied 11 days after germination as foliar spray; assay type: organism-based; details: in vivo, other, 264 h
Xanthium strumarium [16] = experiment: Post-emergence herbicidal activity against Xanthium strumarium (cocklebur) assessed as mortality at 1.6 g a.i/10 a applied 11 days after germination as foliar spray; assay type: functional; details: 264 h
Echinochloa crus-galli [17] = experiment: Post-emergence herbicidal activity against Echinochloa crus-galli (barnyard grass) assessed as mortality at 1.6 g a.i/10 a applied 11 days after germination as foliar spray; assay type: functional; details: 264 h
Echinochloa crus-galli [18] = experiment: Post-emergence herbicidal activity against Echinochloa crus-galli (barnyard grass) assessed as mortality at 6.3 g a.i/10 a applied 11 days after germination as foliar spray; assay type: functional; details: 264 h
Xanthium strumarium [19] = experiment: Pre-emergence herbicidal activity against Xanthium strumarium (cocklebur) assessed as mortality at 1.6 g a.i/10 a; assay type: functional
Xanthium strumarium [20] = experiment: Pre-emergence herbicidal activity against Xanthium strumarium (cocklebur) assessed as mortality at 6.3 g a.i/10 a; assay type: functional
Ipomoea lacunosa [21] = experiment: Pre-emergence herbicidal activity against Ipomoea lacunosa assessed as mortality at 1.6 g a.i/10 a; assay type: functional
Ipomoea lacunosa [22] = experiment: Pre-emergence herbicidal activity against Ipomoea lacunosa assessed as mortality at 6.3 g a.i/10 a; assay type: functional
Abutilon theophrasti [23] = experiment: Pre-emergence herbicidal activity against Abutilon theophrasti (velvetleaf) assessed as mortality at 1.6 g a.i/10 a; assay type: functional
Echinochloa crus-galli [24] = experiment: Pre-emergence herbicidal activity against Echinochloa crus-galli (barnyard grass) assessed as mortality at 1.6 g a.i/10 a; assay type: functional
Abutilon theophrasti [25] = experiment: Post-emergence herbicidal activity against Abutilon theophrasti (velvetleaf) assessed as mortality at 6.3 g a.i/10 a applied 11 days after germination as foliar spray; assay type: functional; details: 264 h
Glycine max [26] = experiment: as §1; assay type: organism-based; details: in vivo, other
Glycine max [27] = experiment: as §2; assay type: organism-based; details: in vivo, other
[28] = as §3; assay type: organism-based; details: in vivo, 1.6 g a.i/10 a
Gossypium hirsutum [29] = experiment: Post-emergence phytotoxicity against Gossypium hirsutum (cotton) assessed as mortality per 10 acre; assay type: organism-based; details: in vivo
Xanthium strumarium [30] = experiment: Post-emergence herbicidal activity against Xanthium strumarium (cocklebur) assessed as mortality at 6.3 g a.i/10 a applied 11 days after germination as foliar spray; assay type: functional; details: 264 h
Abutilon theophrasti [31] = experiment: Post-emergence herbicidal activity against Abutilon theophrasti (velvetleaf) assessed as mortality at 1.6 g a.i/10 a applied 11 days after germination as foliar spray; assay type: functional; details: 264 h
[32] = as §4; assay type: organism-based; details: in vivo, 1.6 g a.i/10 a
[33] = as §5; assay type: organism-based; details: in vivo, 1.6 g a.i/10 a
Cyperus iria [34] = experiment: Pre-emergence herbicidal activity against Cyperus iria assessed as growth inhibition at 25 g a.i/10 a; assay type: functional, organism-based
Chenopodium album [35] = experiment: Pre-emergence herbicidal activity against Chenopodium album assessed as growth inhibition at 25 g a.i/10 a; assay type: functional, organism-based
Amaranthus retroflexus [36] = experiment: Pre-emergence herbicidal activity against Amaranthus retroflexus assessed as growth inhibition at 25 g a.i/10 a; assay type: functional, organism-based
Persicaria nodosa [37] = experiment: Pre-emergence herbicidal activity against Persicaria nodosa assessed as growth inhibition at 25 g a.i/10 a; assay type: functional, organism-based
Digitaria sanguinalis [38] = experiment: Pre-emergence herbicidal activity against Digitaria sanguinalis (hairy crabgrass) assessed as growth inhibition at 25 g a.i/10 a; assay type: functional, organism-based
Echinochloa crus-galli [39] = experiment: Pre-emergence herbicidal activity against Echinochloa crus-galli (barnyard grass) assessed as growth inhibition at 25 g a.i/10 a; assay type: functional, organism-based
Cyperus iria [40] = experiment: Post-emergence herbicidal activity against Cyperus iria assessed as growth inhibition at 25 g a.i/10 a applied 11 days after germination as foliar spray; assay type: functional, organism-based
Chenopodium album [41] = experiment: Post-emergence herbicidal activity against Chenopodium album assessed as growth inhibition at 25 g a.i/10 a applied 11 days after germination as foliar spray; assay type: functional, organism-based
Amaranthus retroflexus [42] = experiment: Post-emergence herbicidal activity against Amaranthus retroflexus assessed as growth inhibition at 25 g a.i/10 a applied 11 days after germination as foliar spray; assay type: functional, organism-based
Persicaria nodosa [43] = experiment: Post-emergence herbicidal activity against Persicaria nodosa assessed as growth inhibition at 25 g a.i/10 a applied 11 days after germination as foliar spray; assay type: functional, organism-based
Digitaria sanguinalis [44] = experiment: Post-emergence herbicidal activity against Digitaria sanguinalis (hairy crabgrass) assessed as growth inhibition at 25 g a.i/10 a applied 11 days after germination as foliar spray; assay type: functional, organism-based
Echinochloa crus-galli [45] = experiment: Post-emergence herbicidal activity against Echinochloa crus-galli (barnyard grass) assessed as growth inhibition at 25 g a.i/10 a applied 11 days after germination as foliar spray; assay type: functional, organism-based
Ipomoea lacunosa [46] = experiment: Pre-emergence herbicidal activity against Ipomoea lacunosa assessed as mortality per 10 acre; assay type: functional
Persicaria nodosa [47] = experiment: Pre-emergence herbicidal activity against Persicaria nodosa assessed as mortality per 10 acre; assay type: functional
Amaranthus retroflexus [48] = experiment: Pre-emergence herbicidal activity against Amaranthus retroflexus assessed as mortality per 10 acre; assay type: functional
Echinochloa crus-galli [49] = experiment: Pre-emergence herbicidal activity against Echinochloa crus-galli (barnyard grass) assessed as mortality per 10 acre; assay type: functional
Gossypium hirsutum [50] = experiment: Pre-emergence phytotoxicity against Gossypium hirsutum (cotton) assessed as mortality per 10 acre; assay type: organism-based; details: in vivo
Xanthium strumarium [51] = experiment: Post-emergence herbicidal activity against Xanthium strumarium (cocklebur) assessed as mortality per 10 acre; assay type: functional
Ipomoea lacunosa [52] = experiment: Post-emergence herbicidal activity against Ipomoea lacunosa assessed as mortality per 10 acre; assay type: functional
Persicaria nodosa [53] = experiment: Post-emergence herbicidal activity against Persicaria nodosa assessed as mortality per 10 acre; assay type: functional
Amaranthus retroflexus [54] = experiment: Post-emergence herbicidal activity against Amaranthus retroflexus assessed as mortality per 10 acre; assay type: functional
Echinochloa crus-galli [55] = experiment: Post-emergence herbicidal activity against Echinochloa crus-galli (barnyard grass) assessed as mortality per 10 acre; assay type: functional
Xanthium strumarium [56] = experiment: Pre-emergence herbicidal activity against Xanthium strumarium (cocklebur) assessed as mortality per 10 acre; assay type: functional
Abutilon theophrasti [57] = experiment: Pre-emergence herbicidal activity against Abutilon theophrasti (velvetleaf) assessed as mortality at 6.3 g a.i/10 a; assay type: functional; details: Abutilon theophrasti, pre-emergence

SMILES: CCCOc1cccc(Sc2nc(OC)cc(OC)n2)c1C(=O)O
- Activity (Echinochloa crus-galli [1]): <50%
- mortality at 16 g/ha (Ipomoea lacunosa [2]): < 5%
- mortality at 63 g/ha (Ipomoea lacunosa [3]): < 5%
- Activity (Gossypium hirsutum [4]): Non-toxic
- Activity (Gossypium hirsutum [5]): Non-toxic
- mortality [6]: < 50%
- mortality ([7]; read-out: Activity): < 50%
- mortality ([8]; read-out: Activity): < 50%
- Activity (Zea mays [9]): < 50%
- Activity (Gossypium hirsutum [10]): Non-toxic
- Activity (Gossypium hirsutum [11]): Toxic
- Activity (Glycine max [12]): Toxic
- Activity (Glycine max [13]): Non-toxic
- Activity (Zea mays [14]): Non-toxic
- Activity (Zea mays [15]): Toxic
- mortality at 16 g/ha (Xanthium strumarium [16]): < 5%
- mortality at 16 g/ha (Echinochloa crus-galli [17]): < 5%
- mortality at 63 g/ha (Echinochloa crus-galli [18]): < 5%
- Activity (Xanthium strumarium [19]): <50%
- Activity (Xanthium strumarium [20]): <50%
- Activity (Ipomoea lacunosa [21]): <50%
- Activity (Ipomoea lacunosa [22]): <50%
- Activity (Abutilon theophrasti [23]): <50%
- Activity (Echinochloa crus-galli [24]): <50%

SMILES: COc1cc(OC)nc(Sc2cccc(OC)c2C(=O)O)n1
- Activity (Echinochloa crus-galli [1]): >90%
- mortality at 63 g/ha (Abutilon theophrasti [25]): > 90%
- Activity (Gossypium hirsutum [4]): Non-toxic
- Activity (Gossypium hirsutum [5]): Non-toxic
- Activity (Glycine max [26]): Toxic
- Activity (Glycine max [27]): Toxic
- mortality ([8]; read-out: Activity): > 90%
- Activity (Zea mays [9]): > 90%
- mortality at 264 h [28]: < 5%
- Activity (Gossypium hirsutum [11]): Non-toxic
- Activity (Glycine max [12]): Toxic
- Activity (Glycine max [13]): Toxic
- Activity (Zea mays [14]): Toxic
- Activity (Zea mays [15]): Toxic
- Activity (Echinochloa crus-galli [24]): >90%

SMILES: COc1cc(OC)nc(Oc2cccc(Br)c2C(=O)O)n1
- ED20 (Gossypium hirsutum [29]): 0.2 gAi
- mortality at 63 g/ha (Echinochloa crus-galli [1]; Echinochloa crus-galli, pre-emergence): > 90%
- mortality at 63 g/ha (Xanthium strumarium [30]): > 90%
- mortality at 16 g/ha (Ipomoea lacunosa [2]): > 90%
- mortality at 63 g/ha (Ipomoea lacunosa [3]): > 90%
- mortality at 16 g/ha (Abutilon theophrasti [31]): > 90%
- mortality at 63 g/ha (Abutilon theophrasti [25]): > 90%
- Activity (Gossypium hirsutum [4]): Non-toxic
- Activity (Gossypium hirsutum [5]): Non-toxic
- Activity (Glycine max [26]): Toxic
- mortality ([7]; read-out: mortality): > 90%
- mortality ([8]; read-out: mortality): > 90%
- Activity (Gossypium hirsutum [10]): Toxic
- Activity (Gossypium hirsutum [11]): Toxic
- mortality at 264 h [32]: > 90%
- mortality at 264 h [33]: > 90%
- mortality at 63 g/ha (Echinochloa crus-galli [18]): > 90%
- growth inhibition (GI) (Cyperus iria [34]): Active
- growth inhibition (GI) (Chenopodium album [35]): Active
- growth inhibition (GI) (Amaranthus retroflexus [36]): Active
- growth inhibition (GI) (Persicaria nodosa [37]): Active
- growth inhibition (GI) (Digitaria sanguinalis [38]): Active
- growth inhibition (GI) (Echinochloa crus-galli [39]): Active
- growth inhibition (GI) (Cyperus iria [40]): Active
- growth inhibition (GI) (Chenopodium album [41]): Active
- growth inhibition (GI) (Amaranthus retroflexus [42]): Active
- growth inhibition (GI) (Persicaria nodosa [43]): Active
- growth inhibition (GI) (Digitaria sanguinalis [44]): Active
- growth inhibition (GI) (Echinochloa crus-galli [45]): Active
- ED90 (Ipomoea lacunosa [46]): 25 gAi
- ED90 (Persicaria nodosa [47]): 0.4 gAi
- ED90 (Amaranthus retroflexus [48]): 0.4 gAi
- ED90 (Echinochloa crus-galli [49]): 1.5 gAi
- ED20 (Gossypium hirsutum [50]): Toxic
- ED90 (Xanthium strumarium [51]): 1.5 gAi
- ED90 (Ipomoea lacunosa [52]): 0.8 gAi
- ED90 (Persicaria nodosa [53]): 0.2 gAi
- ED90 (Amaranthus retroflexus [54]): 0.2 gAi
- ED90 (Echinochloa crus-galli [55]): inactive
- mortality at 16 g/ha (Ipomoea lacunosa [21]; Ipomoea lacunosa, pre-emergence): < 5%
- ED90 (Xanthium strumarium [56]): 25 gAi
- mortality at 63 g/ha (Abutilon theophrasti [57]): > 90%
